In patent US20080027125A1 (priority 2006, published 2008):

What was measured:
[1] = Form A compared with the amorphous form; Form B as stated; cited from earlier work
[2] = Storing at room temperature under 100% RH for 10 days, analysed by XRD; type: physicochemical
Description: In the following examples, the forms of Fluvastatin Sodium were identified using a Scintag X-ray powder diffractometer model X'TRA with a solid state detector. Copper radiation of 1.5418 Å was used. The sample holder was a round standard aluminum sample holder with rough zero background. The scanning parameters were range: 2-40 degrees two-theta; scan mode: continuous scan; step size: 0.05 deg.; and a rate of 5 deg/min. The water content of the samples was determined by the method known as Karl Fisher (KF). […] The samples stored under 100% RH had about 25% water content.

[3] = Storing at room temperature under 0-60% RH for 10 days, analysed by XRD and KF; type: physicochemical; conditions: for form found by XRD at the end of the storage time / water content after storage: room temperature
Description: Copper radiation of 1.5418 Å was used. The sample holder was a round standard aluminum sample holder with rough zero background. The scanning parameters were range: 2-40 degrees two-theta; scan mode: continuous scan; step size: 0.05 deg.; and a rate of 5 deg/min. The water content of the samples was determined by the method known as Karl Fisher (KF). […] Before and after the storage time the sample was analyzed by XRD. […] Before and after the storage time the sample was analyzed by XRD and KF.

[4] = Heating of Fluvastatin Sodium Form CVI in oven, analysed by XRD and KF; type: physicochemical
Description: In the following examples, the forms of Fluvastatin Sodium were identified using a Scintag X-ray powder diffractometer model X'TRA with a solid state detector. Copper radiation of 1.5418 Å was used. The sample holder was a round standard aluminum sample holder with rough zero background. The scanning parameters were range: 2-40 degrees two-theta; scan mode: continuous scan; step size: 0.05 deg.; and a rate of 5 deg/min. The water content of the samples was determined by the method known as Karl Fisher (KF).

[5] = 0% RH, listed as fluvastatin Sodium Form CVI

SMILES: CC(C)n1c(/C=C/C(O)C[C@@H](O)CC(=O)O)c(-c2ccc(F)cc2)c2ccccc21 (stereo partly drawn) [form B, fluvastatin sodium]
- hygroscopicity [1]: low hygroscopicity

SMILES: CC(C)n1c(/C=C/C(O)C[C@@H](O)CC(=O)O)c(-c2ccc(F)cc2)c2ccccc21 (stereo partly drawn) [amorphous fluvastatin sodium, fluvastatin sodium]
- water content after storage [2]: about 25%
- form found by XRD after storage ([2]; room temperature): Fluvastatin Na Form LXVI
- form found by XRD at the end of the storage time ([3]; 0% RH): amorphous Fluvastatin Sodium
- water content after storage ([3]; 0% RH): 4%
- form found by XRD at the end of the storage time ([3]; 60% RH): amorphous Fluvastatin Sodium

SMILES: CC(C)n1c(/C=C/C(O)C[C@@H](O)CC(=O)O)c(-c2ccc(F)cc2)c2ccccc21 (stereo partly drawn) [Form A, fluvastatin sodium]
- hygroscopicity [1]: less hygroscopic

SMILES: CC(C)n1c(/C=C/C(O)C[C@@H](O)CC(=O)O)c(-c2ccc(F)cc2)c2ccccc21 (stereo partly drawn) [Form CVI, fluvastatin sodium]
- water content (KF) after heating ([4]; 80 C, 1 hour): about 2%
- water content (KF) after heating ([4]; 80 C, 1 hour, listed as Fluvastatin Na Form CVI): 2%
- conversion into fluvastatin sodium Form LXVI ([4]; heating to about 80° C. for about 1 hour): ≤ 10%
- form found by XRD after heating ([4]; oven, 80 C, 1 hour): Fluvastatin Sodium Form CVI
- form found by XRD at the end of the storage time [3, 5]: Fluvastatin Sodium Form CVI
- water content after storage [3, 5]: 3%
- form found by XRD at the end of the storage time ([3]; 60% RH, listed as fluvastatin Sodium Form CVI): Fluvastatin Sodium Form CVI
- conversion into fluvastatin sodium Form LXVI ([3]; relative humidity about 0% to about 60%): ≤ 10%
